These results are taken from patent publication US6706664B1, “Benzoxazole compounds, process for the preparation thereof and herbicides” (UBE Industries, Ltd., priority 1999, dated 2004).

Parameters in all cases: key: 0: normal development; 1: Less damaged; 2: Slightly damaged; 3: Moderately damaged; 4: Severely damaged; 5: All killed
The subject of assay [1] is annual bluegrass. Kind of assay: Foliar spread test for upland field. Type of assay: in vivo, Poa annua. As to conditions: foliar spray 500 ppm, 3 weeks, rank vs non-treated. The essentials:
(§1)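 Scoring used a 0–5 scale, where 0 meant normal development and 5 meant all plants killed, assessed 3 weeks after treatment. Plants had been grown about 2 weeks from seed in volcanic ash soil before a uniform spray at 500 ppm containing 0.5% surfactant.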

Assay [2] relates to barnyardgrass. Kind of assay: Herbicidal test for paddy field. Type of assay: in vivo, Echinochloa crusgalli. To be noted: paddy field pot, 500 g/ha dropwise at 1.5 leaf stage of barnyardgrass, 3 weeks, rank vs non-treated. In short, it runs like this:
(§2)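 Scores run on a six-point scale from 0 for normal development to 5 for all plants killed, judged against non-treated pots. Plants were grown in Ube soil under 3 cm of standing water and treated by pipet with 500 g/ha of the compound once barnyardgrass had 1.5 leaves. Assessment followed 3 weeks in a glasshouse averaging 25° C.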

For assay [3], the system named is monochoria. Kind of assay: Herbicidal test for paddy field. Type of assay: in vivo, Monochoria vaginalis. As to conditions: paddy field pot, 500 g/ha dropwise at 1.5 leaf stage of barnyardgrass, 3 weeks, rank vs non-treated. The essentials: as §2
Assay [4] deals with blackgrass. The assay is described as follows: Soil treatment test for upland field. Type of assay: in vivo, Alopecurus aegualis. As to conditions: 500 g/ha, glass house 25° C., 3 weeks. In short, it runs like this: (§3)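 Damage rated on a 0–5 scale (0 normal development, 5 all killed) after 3 weeks in a glasshouse at about 25 °C. Compounds applied as a water-diluted wettable powder (0.05% surfactant) sprayed at 500 g/ha onto soil surface over freshly sown seeds in alluvial Ube soil.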

Assay [5] deals with morning glory. The assay is described as follows: Foliar spread test for upland field. Type of assay: in vivo, Ipomoea spps. To be noted: foliar spray 500 ppm, 3 weeks, rank vs non-treated. In short, it runs like this: as §1
The subject of assay [6] is velvetleaf. The assay is described as follows: Foliar spread test for upland field. To be noted: foliar spray 500 ppm, 3 weeks, rank vs non-treated. Type of assay: in vivo, Abutilon theophrasti. In short, it runs like this:
as §1

Assay [7] concerns common lambsquartes. The assay is described as follows: Soil treatment test for upland field. Type of assay: in vivo, Chenopodium album. As to conditions: 500 g/ha, glass house 25° C., 3 weeks. In short, it runs like this: as §3
In assay [8] the test system is green foxtail. Kind of assay: Soil treatment test for upland field. Type of assay: in vivo, Setaria viridis. To be noted: 500 g/ha, glass house 25° C., 3 weeks. The essentials:
as §3

Assay [9] relates to blackgrass. The assay is described as follows: Foliar spread test for upland field. As to conditions: foliar spray 500 ppm, 3 weeks, rank vs non-treated. Type of assay: in vivo, Alopecurus aegualis. The essentials:
as §1

The test system of assay [10] is annual bluegrass. The assay is described as follows: Soil treatment test for upland field. Type of assay: in vivo, Poa annua. To be noted: 500 g/ha, glass house 25° C., 3 weeks. In short, it runs like this:
as §3

In assay [11] the test system is velvetleaf. The assay is described as follows: Soil treatment test for upland field. Type of assay: in vivo, Abutilon theophrasti. As to conditions: 500 g/ha, glass house 25° C., 3 weeks. In short, it runs like this:
as §3

The test system of assay [12] is common lambsquartes. Kind of assay: Foliar spread test for upland field. Type of assay: in vivo, Chenopodium album. To be noted: foliar spray 500 ppm, 3 weeks, rank vs non-treated. In short, it runs like this:
as §1

In assay [13] the test system is cotton. The assay is described as follows: Soil treatment test for upland field. Type of assay: in vivo. As to conditions: 500 g/ha, glass house 25° C., 3 weeks. In short, it runs like this:
as §3

The test system of assay [14] is soybean. The assay is described as follows: Soil treatment test for upland field. To be noted: 500 g/ha, glass house 25° C., 3 weeks. Type of assay: in vivo. The essentials:
as §3

In assay [15] the test system is solgum. The assay is described as follows: Soil treatment test for upland field. Type of assay: in vivo. To be noted: 500 g/ha, glass house 25° C., 3 weeks. In short, it runs like this:
as §3

The test system of assay [16] is wheat. Kind of assay: Soil treatment test for upland field. Type of assay: in vivo. As to conditions: 500 g/ha, glass house 25° C., 3 weeks. In short, it runs like this:
as §3

Assay [17] concerns sugar beat. Kind of assay: Soil treatment test for upland field. Type of assay: in vivo. To be noted: 500 g/ha, glass house 25° C., 3 weeks. The essentials: as §3
Assay [18] has as its system corn. The assay is described as follows: Soil treatment test for upland field. Type of assay: in vivo. To be noted: 500 g/ha, glass house 25° C., 3 weeks. The essentials: as §3
Assay [19] concerns livid amaranth. Kind of assay: Foliar spread test for upland field. Type of assay: in vivo, Amaranthus lividus. As to conditions: foliar spray 500 ppm, 3 weeks, rank vs non-treated. The essentials:
as §1

Turning to `CCC(Oc1cccc(C(F)(F)F)c1)c1nc2cc(Cl)c(C)cc2o1` (stereo not drawn) [Compound 339, 1-(5-chloro-6-methylbenzoxazol-2-yl)-1-(3-(trifluoromethyl)phenoxy)propane], the “Effects Annual bluegrass” value in [1] worked out at 2; in assay [10], 5. Besides, the “Effect Barnyardgrass” value in assay [2] was 4. The “Effect Monochoria” value in assay [3] worked out at 5. The “Effects Blackgrass” value in assay [4] stood at 3; in assay [9] it was 2. The “Effects Morning glory” value in assay [5] stood at 2. Further, the “Effects Velvetleaf” value stood at 2 in [6] and 4 in assay [11]. In addition, the “Effects Common lambsquarters” value in [7] and in assay [12] was 4 each time. Further, the “Effects Green foxtail” value in [8] worked out at 5. For the same compound, the “Effects Cotton” value in assay [13] is given as 0. Also, the “Effects Soybean” value in [14] amounted to 1. The “Effects Solgum” value in assay [15] turned out to be 1. For the same compound, in assay [16], the “Effects Wheat” value is 1. Besides, the “Effects Sugar beat” value in assay [17] was determined as 4. Moreover, in assay [18], the “Effects Corn” value is reported as 1. The “Effects Livid amaranth” value in assay [19] is on record as 4.
Regarding `CCC(Oc1ccc(F)c(C(F)(F)F)c1)c1nc2cc(F)c(F)cc2o1` (stereo not drawn) [Compound 284], the “Effects Annual bluegrass” value in [1] is recorded as 3; in assay [10] it was 5. The “Effect Barnyardgrass” value in assay [2] is on record as 4. The “Effect Monochoria” value in assay [3] was 5. Also, the results for the “Effects Blackgrass” value in [4] and in [9] were 5 and 2, respectively. For the same compound, the “Effects Morning glory” value in assay [5] is given as 3. Also, the results for the “Effects Velvetleaf” value in [6] and in assay [11] were 2 and 5, respectively. In addition, the “Effects Common lambsquarters” value in assay [7] and in assay [12] was 4 throughout. The “Effects Green foxtail” value in assay [8] was found to be 5. In addition, the “Effects Cotton” value in [13] amounted to 1. Besides, in assay [14], the “Effects Soybean” value is recorded as 2. Also, the “Effects Solgum” value in [15] came out at 2. In addition, the “Effects Wheat” value in [16] is 2. In addition, the “Effects Sugar beat” value in [17] amounted to 5. In addition, the “Effects Corn” value in assay [18] turned out to be 2. Further, in [19], the “Effects Livid amaranth” value is on record as 5.
Consider `CCCC(Oc1cccc(C(F)(F)F)c1)c1nc2cc(Cl)ccc2o1` (stereo not drawn) [Compound 142, 1-(5-chlorobenzoxazol-2-yl)-1-(3-(trifluoromethyl)phenoxy)butane], for which the “Effects Annual bluegrass” value is recorded as 3 in [1] and 5 in [10]. For the same compound, in assay [2], the “Effect Barnyardgrass” value stood at 3. Moreover, the “Effect Monochoria” value in assay [3] was determined as 5. For the same compound, the “Effects Blackgrass” value stood at 5 in assay [4] and 2 in [9]. Moreover, in [5], the “Effects Morning glory” value is listed as 3. For the same compound, the figures for the “Effects Velvetleaf” value in [6] and in assay [11] were 3 and 5, respectively. In addition, the figures for the “Effects Common lambsquarters” value in assay [7] and in [12] were 5 and 4, respectively. Further, in assay [8], the “Effects Green foxtail” value is listed as 5. In addition, in assay [13], the “Effects Cotton” value was found to be 0. Also, the “Effects Soybean” value in assay [14] is 3. The “Effects Solgum” value in assay [15] amounted to 1. In addition, the “Effects Wheat” value in assay [16] is 1. Moreover, in assay [17], the “Effects Sugar beat” value was found to be 5. Also, the “Effects Corn” value in [18] came to 1. The “Effects Livid amaranth” value in assay [19] was found to be 4.
Regarding `CCC(Oc1cccc(OC(F)(F)F)c1)c1nc2cc([N+](=O)[O-])ccc2o1` (stereo not drawn) [Compound 450], the “Effects Annual bluegrass” value in [1] is reported as 4; in assay [10], 5. The “Effect Barnyardgrass” value in assay [2] turned out to be 4. The “Effect Monochoria” value in [3] is reported as 5. The entries for the “Effects Blackgrass” value in [4] and in assay [9] were 5 and 3, respectively. Also, in [5], the “Effects Morning glory” value was found to be 2. The entries for the “Effects Velvetleaf” value in [6] and in [11] were 3 and 5, respectively. Also, the “Effects Common lambsquarters” value in [7] and in assay [12] was 4 each time. For the same compound, the “Effects Green foxtail” value in assay [8] is 5. For the same compound, the “Effects Cotton” value in [13] turned out to be 2. Further, the “Effects Soybean” value in assay [14] came to 1. In [15], the “Effects Solgum” value came to 2. For the same compound, the “Effects Wheat” value in [16] came out at 1. Moreover, in assay [17], the “Effects Sugar beat” value stood at 5. For the same compound, in assay [18], the “Effects Corn” value came out at 2. Moreover, the “Effects Livid amaranth” value in assay [19] was found to be 4.
For the compound `CCCC(Oc1ccc(F)c(C(F)(F)F)c1)c1nc2cc(C#N)c(Cl)cc2o1` (stereo not drawn) [Compound 533], the “Effects Annual bluegrass” value in assay [1] and in [10] was 4 each time. The “Effect Barnyardgrass” value in assay [2] was 5. The “Effect Monochoria” value in assay [3] came out at 4. Further, the “Effects Blackgrass” value is 4 in assay [4] and 3 in [9]. Also, the “Effects Morning glory” value in [5] is given as 5. For the same compound, the entries for the “Effects Velvetleaf” value in [6] and in [11] were 2 and 5, respectively. Further, the “Effects Common lambsquarters” value is on record as 5 in assay [7] and 4 in [12]. In addition, the “Effects Green foxtail” value in assay [8] was found to be 5. In [13], the “Effects Cotton” value came to 0. Also, the “Effects Soybean” value in assay [14] is reported as 0. In [15], the “Effects Solgum” value stood at 0. For the same compound, the “Effects Wheat” value in assay [16] is on record as 1. Further, the “Effects Sugar beat” value in assay [17] stood at 5. Also, the “Effects Corn” value in assay [18] worked out at 0. Moreover, in assay [19], the “Effects Livid amaranth” value was 5.
As for `CCCC(Oc1cccc(C(F)(F)F)c1)c1nc2cc(C#N)c(Cl)cc2o1` (stereo not drawn) [Compound 532], the “Effects Annual bluegrass” value in assay [1] amounted to 4; in assay [10] it was 5. Besides, the “Effect Barnyardgrass” value in assay [2] was determined as 5. Moreover, the “Effect Monochoria” value in [3] was found to be 5. The “Effects Blackgrass” value in [4] is reported as 5; in assay [9], 4. Further, the “Effects Morning glory” value in assay [5] came to 3. The “Effects Velvetleaf” value in [6] stood at 3; in assay [11], 5. Moreover, the “Effects Common lambsquarters” value in assay [7] and in [12] was 5 throughout. The “Effects Green foxtail” value in [8] worked out at 5. In [13], the “Effects Cotton” value is 1. Also, in assay [14], the “Effects Soybean” value was 1. The “Effects Solgum” value in [15] turned out to be 1. For the same compound, the “Effects Wheat” value in assay [16] came to 2. Besides, the “Effects Sugar beat” value in [17] worked out at 5. Also, the “Effects Corn” value in assay [18] turned out to be 1. In addition, the “Effects Livid amaranth” value in [19] turned out to be 5.
